Experimental data reported in patent publication US20220211687A1, “USE OF ARIMOCLOMOL IN THE TREATMENT OF NIEMANN PICK DISEASE” (Orphazyme A/S, priority 2020, published 2022).

Assays:
[1] = test system: Niemann-Pick disease type C (NPC); experiment: EQ-5D-3L Y proxy health-related quality of life, phase 2/3 trial; type: in vivo, human
Method: EQ-5D-3L Y proxy: The HRQoL of individuals in the trial was measured using the child-friendly version of the EQ-5D-3L Y proxy questionnaire. The questionnaire was completed by the patient's caregiver as a proxy for the individual.

[2] = test system: Niemann-Pick disease type C (NPC); experiment: Clinical Global Impression-Improvement scale (CGI-I) responder analysis, phase 2/3 trial; type: in vivo, human
Method: (§1) During the 12-month treatment phase, efficacy assessments for the primary endpoint, the 5-domain NPCCSS score, and for the non-disease specific Clinical Global Impression—Improvement scale (CGI-I) scores were performed at baseline and after 3, 6, 9, and 12 months of treatment; all other efficacy and biomarker assessments were performed at baseline and after 6 and 12 months of treatment.
CGI-I: the CGI-I was originally developed as a research rating tool to assess psychiatric diseases (see Busner J, Targum SD. The clinical global impressions scale: applying a research tool in clinical practice. Psychiatry (Edgmont). 2007;4:28-37, incorporated herein by reference in its entirety). It provides the clinician's impression of improvement (or worsening) of a person's condition at the current visit compared with baseline on a 7-point scale ranging from 1 (very much improved) to 7 (very much worse). In the present trial, CGI-I was performed after clinical examination and patient interviews; the same investigator was instructed to perform CGI-I assessments throughout the trial for a given patient.

[3] = test system: Niemann-Pick disease type C (NPC); experiment: Nine-hole peg test (9-HPT), phase 2/3 trial; type: in vivo, human; settings: for 9-HPT time, change from baseline to 12 months, LS mean: arimoclomol group
Description: 9-HPT: The 9-HPT is a direct and simple measurement of fine motor coordination, hand/eye coordination, and the ability to follow a simple direction, measured in seconds for each hand. The test is not applicable for children under 4 years of age. See Poole J L, Burtner PA, Torres TA, et al. Measuring dexterity in children using the Nine-hole Peg Test. J Hand Ther. 2005; 18:348-51.

[4] = test system: Niemann-Pick disease type C (NPC); experiment: 5-domain NPCCSS score, 12-month double-blind placebo-controlled phase 2/3 trial; type: in vivo, human; settings: for Responders on 5-domain NPCCSS score at 12 months, %: responder = stable or improved
Method: Patients enrolled in the trial were stratified by use of miglustat at baseline. Patients in both strata were randomized 2:1 to receive arimoclomol or placebo.
(§2) Routine clinical care was maintained throughout the trial (including administration of miglustat). Each participant was randomized to receive arimoclomol or placebo three times daily. Arimoclomol was administered orally or by feeding tube at 93-372 mg/day based on the patient's body weight up to the estimated equivalence of 372 mg/day for adults (body weight >55 kg) or of 124 mg three times a day.
as §1
Primary endpoint: The primary endpoint was change from baseline in NPC severity at 12 months as assessed by the 5-domain NPCCSS score, an abbreviated assessment tool originating from the 17 domain NPCCSS score developed by Yanjanin et al., as described herein. The fully validated 5-domain NPCCSS score comprises the domains determined to be most clinically relevant to patients, caregivers, and clinicians: ambulation, cognition, fine motor skills, speech, and swallowing. The total aggregated 5-domain NPCCSS score ranges from 0 to 25, with a higher score indicating more severe clinical impairment.
Subgroup analyses of primary endpoint: NPC is a heterogeneous disease, and patients aged 2 to 18 years present with a large spectrum of disease presentations. The group of children <4 years old includes patients with mild manifestations and patients with aggressive, early fatal disease. As this group is particularly heterogeneous, a subgroup of patients >4 years of age was predefined with the population of study participants.
In the EU, miglustat is indicated for the treatment of progressive neurological manifestations in patients with NPC. However, not all patients are candidates for miglustat treatment, and it is recommended that the benefit of treatment should be evaluated on a regular basis (e.g., every six months). An analysis of the subpopulation of patients receiving miglustat was prespecified to elucidate the effect of arimoclomol in patients on background miglustat treatment. Overall, the subgroups of patients ≥4 years of age, and patients on miglustat treatment, were expected to be more homogeneous with respect to baseline demographics and disease characteristics and therefore more suitable for comparison.
In the first post hoc analysis, subjects with double functional null mutations in NPC1 (NPC1 genotype of Functional Null/Functional Null) were excluded.

[5] = test system: Niemann-Pick disease type C (NPC); experiment: NPC clinical database (NPC-cdb) score, phase 2/3 trial; type: in vivo, human; settings: for NPC-cdb score change from baseline to 12 months, Arimoclomol vs placebo: Difference: p=0.3785
Description: Additional secondary endpoints included: change from baseline in scale for assessment and rating of ataxia (SARA) score at 6 and 12 months; change in the nine-hole peg test (9-HPT) result at 6 and 12 months; change in health-related quality of life (HRQoL) as measured by the 5-dimension 3-level EuroQol questionnaire, youth version (EQ-5D-3L Y proxy) at 6 and 12 months; change in individual 5-domain NPCCSS score at month 12; and NPC clinical database (NPC-cdb) score changes from baseline at trial time points. The NPC-cdb score aims to reflect clinical status; an increase in score indicates a reduction in the patient's abilities.

[6] = Safety evaluation (TEAEs), 12-month double-blind phase 2/3 trial; type: in vivo, human
Method: as §2

[7] = evidenced by presence in cerebrospinal fluid of treated ALS patients; cited from earlier work
[8] = Safety in open-label extension (OLE) of phase 2/3 trial
Description: All OLE patients received arimoclomol; routine clinical care, including miglustat, was maintained.

[9] = test system: Niemann-Pick disease type C (NPC)
[10] = test system: Niemann-Pick disease type C (NPC); experiment: 5-domain NPCCSS score, open-label extension (OLE) of phase 2/3 trial; type: in vivo, human
[11] = test system: Niemann-Pick disease type C (NPC); experiment: 17-domain (full) NPCCSS score excluding hearing domains, phase 2/3 trial; type: in vivo, human; settings: for Full NPCCSS score (excluding hearing domains), LS mean change from baseline, Arimoclomol vs placebo: Difference: p=0.5726
Description: As would be appreciated by the skilled artisan, progression of NPC in a subject can be tracked by a clinician using the NPC composite clinical severity scale (hereafter “NPCCSS”; see Yanjanin NM et al. Am J Med Genet B Neuropsychiatr Genet, 2010; 153B (1): 132-140, incorporated herein by reference in its entirety). A full “17-domain NPCCSS score” incorporates clinical signs and symptoms in nine major (ambulation, cognition, eye movement, fine motor, hearing, memory, seizures, speech, swallowing) and eight minor (auditory brainstem response, behavior, gelastic cataplexy, hyperreflexia, incontinence, narcolepsy, psychiatric, respiratory problems) domains to determine a score which describes the severity of the subject's NPC progression (a higher score, the more progressed/severe the disease is). An abridged “5-domain NPCCSS score” is also used by clinicians, and incorporates clinical signs and symptoms from the major domains of ambulation, cognition, fine motor, speech and swallowing (see Cortina-Borj a M et al. OrphanetJRare Dis, 2018; 13 (1): 143; 3, incorporated herein by reference in its entirety).
as §2

[12] = test system: Niemann—Pick disease type C (NPC); settings: background statement; cited from earlier work

## [O-][n+]1cccc(/C(Cl)=N/OC[C@H](O)CN2CCCCC2)c1 [Arimoclomol, N-[(2R)-2-hydroxy-3-piperidin-1-ylpropoxy]-1-oxidopyridin-1-ium-3-carboximidoyl chloride]
[1]; arimoclomol group
  EQ-5D-3L Y proxy, Improved at 12 months, %: (25.9) %
  EQ-5D-3L Y proxy, Worsened at 12 months, %: (44.4) %
[1]; p=0.1804
  EQ-5D-3L Y proxy, Worsened at 12 months, Arimoclomol vs placebo: Difference: 24.4%
[1]; p=0.4880
  EQ-5D-3L Y proxy, Improved at 12 months, Arimoclomol vs placebo: Difference: −14.1%
[2]; p=1.0000
  Responders on CGI-I at 12 months, Arimoclomol vs placebo: Difference: 2.6%
[2]; responder = stable or improved, arimoclomol group
  Responders on CGI-I at 12 months, %: (58.8) %
[3]; Dominant hand
  9-HPT time, change from baseline to 12 months, LS mean: -3.29 s
[3]; Dominant hand, p=0.7283
  9-HPT time, change from baseline to 12 months, Arimoclomol vs placebo: Difference: 3.20 s
[3]; Non-dominant hand
  9-HPT time, change from baseline to 12 months, LS mean: 11.68 s
[3]; Non-dominant hand, p=0.7708
  9-HPT time, change from baseline to 12 months, Arimoclomol vs placebo: Difference: -5.91 s
[4]; individuals aged ≥4 years, arimoclomol group n=30 (24 at 12 months)
  Change in 5-domain NPCCSS score from baseline at 12 months, mean change: 0.44
[4]; individuals aged ≥4 years, p=0.0190
  Change in 5-domain NPCCSS score from baseline at 12 months, Arimoclomol vs placebo: Difference: −1.75
[4]; individuals aged ≥4 years, vs placebo
  Relative reduction in annual disease progression: 80%
[4]; individuals not receiving miglustat, arimoclomol group n=8 (3 at 12 months)
  Change in 5-domain NPCCSS score from baseline at 12 months, mean change: 4.2
[4]; individuals not receiving miglustat, p=0.2835
  Change in 5-domain NPCCSS score from baseline at 12 months, Arimoclomol vs placebo: Difference: 2.21
[4]; individuals receiving miglustat, arimoclomol group n=26 (22 at 12 months)
  Change in 5-domain NPCCSS score from baseline at 12 months, mean change: −0.01
[4]; individuals receiving miglustat, p=0.0074
  Change in 5-domain NPCCSS score from baseline at 12 months, Arimoclomol vs placebo: Difference: −2.01
[4]; individuals receiving miglustat, vs placebo
  Relative reduction in annual disease progression: 101%
[4]; overall population, 5-domain NPCCSS, vs placebo
  Relative reduction in annual disease progression: 63%
[4]; overall population, arimoclomol group n=34 (27 at 12 months), 93-372 mg/day by body weight, three times daily
  Change in 5-domain NPCCSS score from baseline at 12 months, mean change: 0.80
[4]; overall population, p=0.0537
  Change in 5-domain NPCCSS score from baseline at 12 months, Arimoclomol vs placebo: Difference: −1.34
[4]; p=0.5456
  Responders on 5-domain NPCCSS score at 12 months, Arimoclomol vs placebo: Difference: 12.5%
[4]; p=1.0000
  Proportion worsening on 5-domain NPCCSS score at 12 months, Arimoclomol vs placebo: Difference: 0.37%
[4]; patients >4 years old (n=44) and patients concomitantly receiving miglustat (n=39), p<0.05
  Progression of NPC in prespecified subgroups (MMRM on 5-domain NPCCSS): slowed progression of NPC
[4]; post hoc, baseline ASIS within 0.5 and 2
  Relative reduction in annual disease progression: 93%
[4]; post hoc, baseline ASIS within 0.5 and 2 (n=21), p=0.0536
  Change in 5-domain NPCCSS score, Arimoclomol vs placebo: Difference: −2.39
[4]; post hoc, baseline ASIS within 0.5 and 2, arimoclomol n=13
  Change in 5-domain NPCCSS score from baseline at 12 months, mean change: 0.19
[4]; post hoc, excluding individuals with double functional null mutations
  Relative reduction in annual disease progression: 77%
[4]; post hoc, excluding individuals with double functional null mutations, arimoclomol n=31
  Change in 5-domain NPCCSS score from baseline at 12 months, mean change: 0.47
[4]; post hoc, excluding individuals with double functional null mutations, p=0.0242
  Change in 5-domain NPCCSS score, Arimoclomol vs placebo: Difference: −1.56
[4]; arimoclomol group n=34
  Responders on 5-domain NPCCSS score at 12 months, %: (50.0) %
[4]; arimoclomol group n=34, listed as arimoclomol
  Responders on 5-domain NPCCSS score at 12 months, %: 50.0%
[4]; time until worsened by 2 points vs baseline, arimoclomol group
  Time to worsening on 5-domain NPCCSS score: 3.68 months
[4]; worsening by 2 points vs baseline, arimoclomol group n=34
  Proportion worsening on 5-domain NPCCSS score at 12 months, %: (44.1) %
[5]; arimoclomol group
  NPC-cdb score change from baseline to 12 months, LS mean: 1.85
[5]
  NPC-cdb score change from baseline to 12 months, Arimoclomol vs placebo: Difference: −3.03
[5]; listed as arimoclomol
  NPC-cdb score change from baseline to 12 months, Arimoclomol vs placebo: Difference: numerically in favor of arimoclomol
[6]; 12-month placebo-controlled trial
  Tolerability: well tolerated
[6]; arimoclomol group
  Number of patients with increase in serum creatinine level over 1.5 times baseline: Six
  Number of patients with serum creatinine level over twice baseline: two
[6]; arimoclomol group 5/34
  Patients with serious TEAEs: 14.7%
[6]; arimoclomol group 8/34
  Patients with vomiting (most common TEAE): 23.5%
[6]; double-blind phase
  Upper respiratory tract infection and decreased weight, frequency versus placebo: occurred more frequently
[6]; double-blind phase, 12 months, arimoclomol group 30/34
  Patients with TEAEs (adverse event incidence): 88.2%
[6]; during the trial
  Changes in vital signs, electrocardiograms, or other laboratory values: no significant changes
[6]; three patients, four TEAEs (urticaria x2, angioedema, increased blood creatinine)
  Patients with TEAEs that led to trial drug discontinuation: 8.8%
[7]
  Blood-brain barrier penetration: crosses the blood—brain barrier
[8]; M12-24
  Adverse events incidence: 87.8%
[8]; M24-36
  Adverse events incidence: 85.3%
[8]; over 24 months
  Safety and tolerability: safe and well-tolerated
[8]; over 36 months
  Tolerability: well tolerated
[9]; arimoclomol group
  SARA score change from baseline to 12 months, LS mean: 1.06
[9]; p=0.7899
  SARA score change from baseline to 12 months, Arimoclomol vs placebo: Difference: 0.28
[10]; 12-month OLE after 12-month double-blind part
  Benefit over a two-year period: sustained benefit
[10]; OLE, 36 months
  Treatment effect over 36 months: sustained treatment effect
[10]; arimoclomol-arimoclomol group, 3 years' arimoclomol treatment (DB and OLE)
  5D-NPCCSS mean (SD) change from baseline at M36: 3.5 (5.6)
[10]; patients who received arimoclomol for a total of two years, mainly due to patients under 4 years
  Progression in OLE compared to placebo-controlled part: greater progression
[10]; patients who switched from placebo to arimoclomol, 12-month open label extension
  5-domain NPCCSS progression: 0.23
[10]; placebo-arimoclomol group, 2 years' arimoclomol treatment (OLE only)
  5D-NPCCSS mean (SD) change from baseline at M36: 0.9 (2.1)
[10]; predefined subgroups: patients 4 years and older, patients receiving miglustat
  Early treatment initiation versus delayed start of treatment: greater benefit than delayed start of treatment
[10]; subgroups: aged >4 years, treated with miglustat, without double functional null mutations
  Benefit of sustained treatment across subgroups at M36: consistent benefit
[11]; 12 months, arimoclomol group
  Full NPCCSS score (excluding hearing domains), LS mean change from baseline: 1.24
[11]; 12 months
  Full NPCCSS score (excluding hearing domains), LS mean change from baseline, Arimoclomol vs placebo: Difference: −1.56
[11]; 12 months, listed as arimoclomol
  Full NPCCSS score (excluding hearing domains), LS mean change from baseline, Arimoclomol vs placebo: Difference: numerically in favor of arimoclomol
[11]; arimoclomol group n=25
  Full NPCCSS score (excluding hearing domains) at 12 months, Mean: 1.2
  Full NPCCSS score (excluding hearing domains) at 12 months, Median: 1.0

## CCCCN1C[C@H](O)[C@@H](O)[C@H](O)[C@H]1CO [miglustat, (2R,3R,4R,5 S)-1-butyl-2-(hydroxymethyl)piperidine-3 ,4,5-triol]
[12]
  Effect on slowing NPC disease progression: only a modest effect on slowing disease progression
